Data published in patent US8865714B2, “Piperazine compound capable of inhibiting prostaglandin D synthase” (Taiho Pharmaceutical Co., Ltd., priority 2009, dated 2014).
Where two headings read alike, the source gives them in different places.

Molecular target: human H-PGDS (Homo sapiens (Human), UniProt O60760)
Assay: Hematopoietic prostaglandin D synthase (H-PGDS) inhibiting action
Assay type: biochemical
Settings: for inhibition at 0.1 µM / H-PGDS inhibition rate (%): compound at 0.1 μM, relative to the control group; for inhibition at 0.1 µM: read-out: H-PGDS inhibition rate (%)
Method: More specifically, the reaction mixture (49 μL) containing 100 mM Tris-HCl (pH 8.0), 1 mM reduced glutathione, 0.1 mg/mL γ-globulin, and human H-PGDS (q.s.), and a compound (final concentration: 0.01-100 μM) was preincubated at 25° C. for 5 minutes. Note that a DMSO solution (final concentration: 1%) was added to the solvent control group. Subsequently, 1 μL of [14C] prostaglandin H2 (final concentration: 10 μM) was added to start the reaction. One minute after the start of the reaction, 250 μL of a reaction stopper solution (diethylether/methanol/1 M citric acid (30/4/1) at a temperature of −20° C. was added to stop the reaction. After the reaction was stopped, 50 μL of the upper layer portion (organic solvent phase) was applied to a TLC plate and developed at −20° C. for 45 minutes (developing solvent: diethylether/methanol/acetic acid (90/2/1)). After drying the TLC plate, the TLC plate was exposed to an imaging plate for 1 to 24 hours, and the radioactivity corresponding to prostaglandin D2 (PGD2) was analyzed using an image analyzer (produced by Fujifilm Corporation).

[1] = human H-PGDS, [14C] prostaglandin H2 10 μM
[2] = human H-PGDS, [14C] prostaglandin H2 10 μM, read-out: IC50

human H-PGDS, sequence (O60760 whole entry): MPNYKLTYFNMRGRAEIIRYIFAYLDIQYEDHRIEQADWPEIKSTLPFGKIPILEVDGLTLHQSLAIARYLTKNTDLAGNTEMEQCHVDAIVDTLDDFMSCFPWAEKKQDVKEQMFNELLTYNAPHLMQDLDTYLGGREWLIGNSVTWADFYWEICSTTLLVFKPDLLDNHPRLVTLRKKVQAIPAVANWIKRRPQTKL

| Molecule | inhibition at 0.1 µM [1] | H-PGDS inhibition rate (%) [1] | IC50 [2] | IC50 |
| --- | --- | --- | --- | --- |
| Cn1cccc1C(=O)N1CCN(C(=O)Nc2ccc(N3CCC(CCCn4ccnn4)CC3)cc2)CC1 [Example 12, 4-((1-methylpyrrol-2-yl)-carbonyl)-N-(4-(4-(3-(1,2,3-triazol-1-yl)-propyl)piperidin-1-yl)-phenyl)-1-piperazinecarboxamide] | 72.7% | – | – | – |
| O=C(Nc1ccc(N2CCC(C(=O)N3CCOCC3)CC2)cc1)N1CCN(C(=O)c2ccoc2)CC1 [Reference Example 7, 4-((furan-3-yl)-carbonyl)-N-(4-(4-morpholin-1-yl-carbonylpiperidin-1-yl)-phenyl)-1-piperazinecarboxamide] | – | −4.2% | > 1000 nM | – |
| Cn1cccc1C(=O)N1CCN(C(=O)Nc2ccc(N3CCC(C(=O)NCc4cccnc4)CC3)cc2)CC1 [Example 17, 4-((1-methylpyrrol-2-yl)-carbonyl)-N-(4-(4-(pyridin-3-ylmethylcarbamoyl)piperidin-1-yl)-phenyl)-1-piperazinecarboxamide] | 61.7% | – | – | – |
| O=C(Nc1ccc(N2CCC(C(=O)N3CCOCC3)CC2)cc1)N1CCN(C(=O)c2ccsc2)CC1 [Reference Example 5, 4-((thiophen-3-yl)-carbonyl)-N-(4-(4-morpholin-1-yl-carbonylpiperidin-1-yl)-phenyl)-1-piperazinecarboxamide] | – | 9.4% | 732 nM | – |
| O=C(Nc1ccc(N2CCC(C(=O)N3CCOCC3)CC2)cc1)N1CCN(C(=O)c2ccco2)CC1 [Reference Example 6, 4-((furan-2-yl)-carbonyl)-N-(4-(4-morpholin-1-yl-carbonylpiperidin-1-yl)-phenyl)-1-piperazinecarboxamide] | – | −2.7% | > 1000 nM | – |
| 4-((1-methylindol-2-yl)-carbonyl)-N-(4-(4-morpholin-1-yl-carbonylpiperidin-1-yl)-phenyl)-1-piperazinecarboxamide [Reference Example 12] | – | −0.4% | > 1000 nM | – |
| O=C(Nc1ccc(N2CCC(C(=O)N3CCOCC3)CC2)cc1)N1CCN(C(=O)c2cccs2)CC1 [Reference Example 4, 4-((thiophen-2-yl)-carbonyl)-N-(4-(4-morpholin-1-yl-carbonylpiperidin-1-yl)-phenyl)-1-piperazinecarboxamide] | – | 18.0% | 340 nM | – |
| Cc1nc(C)n(CCC2CCN(c3ccc(NC(=O)N4CCN(C(=O)c5cccn5C)CC4)cc3)CC2)n1 [Example 9, 4-((1-methylpyrrol-2-yl)-carbonyl)-N-(4-(4-(2-(3,5-dimethyl-1,2,4-triazol-1-yl)-ethyl)piperidin-1-yl)-phenyl)-1-piperazinecarboxamide] | 54.8% | – | – | – |
| Cn1ccc(C(=O)N2CCN(C(=O)Nc3ccc(N4CCC(C(=O)N5CCOCC5)CC4)cc3)CC2)c1 [Reference Example 3, 4-((1-methylpyrrol-3-yl)-carbonyl)-N-(4-(4-morpholin-1-yl-carbonylpiperidin-1-yl)-phenyl)-1-piperazinecarboxamide] | – | −4.8% | > 1000 nM | – |
| Cn1cccc1C(=O)N1CCN(C(=O)Nc2ccc(N3CCC(O)CC3)cc2)CC1 [Example 1, N-(4-(4-hydroxypiperidin-1-yl)-phenyl)-4-((1-methylpyrrol-2-yl)-carbonyl)-1-piperazinecarboxamide] | 62.2% | – | 58 nM | – |
| Cn1cccc1C(=O)N1CCN(C(=O)Nc2ccc(N3CCC(CCN4CCOCC4)CC3)cc2)CC1 [Example 6, 4-((1-methylpyrrol-2-yl)-carbonyl)-N-(4-(4-morpholinoethylpiperidin-1-yl)-phenyl)-1-piperazinecarboxamide] | 68.3% | – | – | – |
| Cn1cccc1C(=O)N1CCN(C(=O)Nc2ccc(N3CCC(CN4CCOCC4)CC3)cc2)CC1 [Example 4, 4-((1-methylpyrrol-2-yl)-carbonyl)-N-(4-(4-morpholinomethylpiperidin-1-yl)-phenyl)-1-piperazinecarboxamide] | 61.5% | – | – | – |
| O=C(Nc1ccc(N2CCC(C(=O)N3CCOCC3)CC2)cc1)N1CCN(C(=O)c2ccno2)CC1 [Reference Example 8, 4-((isoxazol-5-yl)-carbonyl)-N-(4-(4-morpholin-1-yl-carbonylpiperidin-1-yl)-phenyl)-1-piperazinecarboxamide] | – | −6.6% | > 1000 nM | – |
| Cn1ccnc1C(=O)N1CCN(C(=O)Nc2ccc(N3CCC(C(=O)N4CCOCC4)CC3)cc2)CC1 [Reference Example 9, 4-((1-methylimidazol-2-yl)-carbonyl)-N-(4-(4-morpholin-1-yl-carbonylpiperidin-1-yl)-phenyl)-1-piperazinecarboxamide] | – | −2.8% | > 1000 nM | – |
| Cn1cccc1C(=O)N1CCN(C(=O)Nc2ccc(N3CCC(CCn4cccn4)CC3)cc2)CC1 [Example 10, 4-((1-methylpyrrol-2-yl)-carbonyl)-N-(4-(4-(2-(pyrazol-1-yl)-ethyl)piperidin-1-yl)-phenyl)-1-piperazinecarboxamide] | 74.3% | – | – | – |
| 4-((1-methylpyrrol-2-yl)-carbonyl)-N-(4-(4-(3-(1,2,4-triazol-1-yl-propyl)piperidin-1-yl)-phenyl)-1-piperazinecarboxamide [Example 11] | – | 71.3% | 46 nM | – |
| Cn1cccc1C(=O)N1CCN(C(=O)Nc2ccc(N3CCC(C(=O)NCCN4CCOCC4)CC3)cc2)CC1 [Example 16, 4-((1-methylpyrrol-2-yl)-carbonyl)-N-(4-(4-(2-morpholinoethylcarbamoyl)piperidin-1-yl)-phenyl)-1-piperazinecarboxamide] | 61.1% | – | – | – |
| O=C(Nc1ccc(C(F)(F)F)cc1)N1CCN(C(=O)c2cccc(F)n2)CC1 [Reference Example 18, 4-(6-fluoropyridine-2-carbonyl)piperazine-1-carboxylic acid-(4-trifluoromethylphenyl)amide] | – | – | – | > 1000 nM |
| Cn1cccc1C(=O)N1CCN(C(=O)Nc2ccc(N3CCC(CCn4ccnn4)CC3)cc2)CC1 [Example 7, 4-((1-methylpyrrol-2-yl)-carbonyl)-N-(4-(4-(2-(1,2,3-triazol-1-yl)-ethyl)piperidin-1-yl)-phenyl)-1-piperazinecarboxamide] | 66.7% | – | – | – |
| 4-((((1-methylpyrrol-2-yl)-carbonyl)-1-piperazinyl)carbonyl)amino-4-phenylpiperidine-4-carboxylic acid [Example 2] | – | 53.7% | 86 nM | – |
| CN1CCN(C(=O)C2CCN(c3ccc(NC(=O)N4CCN(C(=O)c5cccn5C)CC4)cc3)CC2)CC1 [Example 15, 4-((1-methylpyrrol-2-yl)-carbonyl)-N-(4-(4-(4-methylpiperazin-1-yl-carbonyl)piperidin-1-yl)-phenyl)-1-piperazinecarboxamide] | 61.3% | – | – | – |
| O=C(Nc1ccc(N2CCC(C(=O)N3CCOCC3)CC2)cc1)N1CCN(C(=O)C2CCCC2)CC1 [Reference Example 10, 4-(cyclopentylcarbonyl)-N-(4-(4-morpholin-1-yl-carbonylpiperidin-1-yl)-phenyl)-1-piperazinecarboxamide] | – | −2.2% | > 1000 nM | – |
| Cn1cccc1C(=O)N1CCN(C(=O)Nc2ccc(N3CCC(CCn4cncn4)C3)cc2)CC1 (stereo not drawn) [Example 5, 4-((1-methylpyrrol-2-yl)-carbonyl)-N-(4-(3-(2-(1,2,4-triazol-1-yl)-ethyl)pyrrolidin-1-yl)-phenyl)-1-piperazinecarboxamide] | 55.5% | – | – | – |
| Cn1cccc1C(=O)N1CCN(C(=O)Nc2ccc(N3CCC(CCn4cncn4)CC3)cc2)CC1 [Example 8, 4-((1-methylpyrrol-2-yl)-carbonyl)-N-(4-(4-(2-(1,2,4-triazol-1-yl)-ethyl)piperidin-1-yl)-phenyl)-1-piperazinecarboxamide] | 58.9% | – | 62 nM | – |
| Cn1cccc1C(=O)N1CCN(C(=O)Nc2ccc(N3CCC(C(=O)N4CCCCC4)CC3)cc2)CC1 [Example 14, 4-((1-methylpyrrol-2-yl)-carbonyl)-N-(4-(4-piperidin-1-yl-carbonylpiperidin-1-yl)-phenyl)-1-piperazinecarboxamide] | 73.6% | – | – | – |
| O=C(Nc1ccc(N2CCC(C(=O)N3CCOCC3)CC2)cc1)N1CCN(C(=O)c2ccccc2)CC1 [Reference Example 11, 4-(benzoyl)-N-(4-(4-morpholin-1-yl-carbonylpiperidin-1-yl)-phenyl)-1-piperazinecarboxamide] | – | 15.8% | 437 nM | – |
| 4-((1-ethylpyrrol-2-yl)-carbonyl)-N-(4-(4-morpholin-1-yl-carbonylpiperidin-1-yl)-phenyl)-1-piperazinecarboxamide [Example 13] | – | 51.8% | 91 nM | – |
